Laboratory results published in patent publication US12281122B1, “PI3K inhibitors” (Cogent Biosciences, Inc., priority 2023, dated 2025).
pIC50: −log10 of the molar value.

Legend:
[1] = system: T47D (PI3Kα-H1047R) cell line; experiment: HTRF phospho-AKT(S473) cell assay in T47D cells; type: cell-based, human; conditions: Homo sapiens; T47D (PI3Kα-H1047R) cells, HTRF phospho-AKT(S473), 2 hours compound incubation
Experimental: (§1) Compounds in the present disclosure were tested in a cell based HTRF phospho-AKT(S473) (CisBio/Revvity) assay in human breast cancer cell lines as a measurement of PIK3CA activity through measuring AKT, a downstream effector. The activity of mutant PI3Kα-H1047R and PI3Kα-Wild Type was measured in the T47D (PI3Kα-H1047R) and SKBR3 (PI3Kα-Wild Type) cell lines, respectively. T47D cells were plated at 20,000 cells per well in 50 μL in RPMI medium supplemented with 10% FBS and 0.2 units/mL insulin, in 384 well plates. SKBR3 cells were plated at 25,000 cells per well in 50 μL in McCoy's 5A medium supplemented with 10% FBS, in 384 well plates. Cells were plated using a Combi Multidrop reagent dispenser (ThermoFisher), and placed in 5% CO2, 37° C. incubator overnight to adhere.
(§2) The next day, cells were treated with either compounds or vehicle (DMSO) in a 12-fold dose response curve of 1:3 dilutions, with 5 μM and 10 μM as the top concentrations for the T47D and SKBR3 cell lines, respectively. Compound treatment was facilitated via the D300e digital dispenser (Tecan), with a maximum DMSO concentration of 0.5%. Following compound addition, cell plates were incubated for 2 hours in 5% CO2, 37° C. incubator. The SKBR3 cells were stimulated and treated with 70 ng/ml PDGF-BB ligand (ThermoFisher) for the remaining 15 minutes of the incubation. Following compound incubation, compound and media was aspirated from the cells and 25 μL of supplemented lysis buffer was added per well, and incubated for 45 minutes at room temperature, shaking at 600 rpm. Next, 16 μL of cell lysate was added to a 384 well low volume ProxyPlate (Perkin Elmer/Revvity) mixed with 4 μL of HTRF antibodies (1:1 Eu Cryptate+d2 Cryptate). HTRF supplemented lysis buffer and antibody reagents were used from the phosphor-AKT(S473) HTRF assay kit (CisBio/Revvity), following manufacturers protocol recommendations. Plates were sealed and incubated at 4° C. overnight.
(§3) The following day, plates were centrifuged for 1 minute at 1000 rpm, and read on a PHERAstar plate reader. IC50 values were calculated using Spotfire software.

[2] = system: SKBR3 (PI3Kα-Wild Type) cell line; experiment: HTRF phospho-AKT(S473) cell assay in SKBR3 cells; type: cell-based, human; conditions: Homo sapiens, SK-BR-3; SKBR3 (PI3Kα-Wild Type) cells, HTRF phospho-AKT(S473), 2 hours compound incubation, PDGF-BB stimulated
Experimental: as §1, §2, §3

Row | pIC50 [1] | pIC50 [2] | Structure (SMILES)
1 | > 6.60 | 5.30 to 6.00 | Cc1cc([C@@H](C)Nc2ccc(Cl)nc2C(=O)NS(C)(=O)=O)c2nc(N3CCC[C@H](c4cc[nH]n4)C3)n(C)c(=O)c2c1 (relative stereo) [Compound 213, 3-(((R)-1-(2-((R*)-3-(1H-pyrazol-3-yl)piperidin-1-yl)-3,6-dimethyl-4-oxo-3,4-dihydroquinazolin-8-yl)ethyl)amino)-6-chloro-N-(methylsulfonyl) picolinamide]
2 | > 6.60 | 5.30 to 6.00 | Cc1cc([C@@H](C)Nc2ccc(Cl)nc2C(=O)NS(C)(=O)=O)c2nc(N3CCC[C@@H](c4cc[nH]n4)C3)n(C)c(=O)c2c1 (relative stereo) [Compound 218, 3-(((R)-1-(2-((R*)-3-(1H-pyrazol-3-yl)piperidin-1-yl)-3,6-dimethyl-4-oxo-3,4-dihydroquinazolin-8-yl)ethyl)amino)-6-chloro-N-(methylsulfonyl) picolinamide]
3 | > 6.60 | 5.30 to 6.00 | Cc1cc([C@@H](C)Nc2ccc(Cl)nc2C(=O)NS(C)(=O)=O)c2nc(N3Cc4cn([C@@H](C)C(F)(F)F)nc4C3)n(C)c(=O)c2c1 (relative stereo) [Compound 222, 6-chloro-3-(((R)-1-(3,6-dimethyl-4-oxo-2-(2-((R*)-1,1,1-trifluoropropan-2-yl)-2,6-dihydropyrrolo[3,4-c]pyrazol-5(4H)-yl)-3,4-dihydroquinazolin-8-yl)ethyl)amino)-N-(methylsulfonyl) picolinamide]
4 | > 6.60 | 5.30 to 6.00 | Cc1cc([C@@H](C)Nc2ccc(Cl)nc2C(=O)NS(C)(=O)=O)c2nc(N3Cc4cn([C@H](C)C(F)(F)F)nc4C3)n(C)c(=O)c2c1 (relative stereo) [Compound 224, 6-chloro-3-(((R)-1-(3,6-dimethyl-4-oxo-2-(2-((R*)-1,1,1-trifluoropropan-2-yl)-2,6-dihydropyrrolo[3,4-c]pyrazol-5(4H)-yl)-3,4-dihydroquinazolin-8-yl)ethyl)amino)-N-(methylsulfonyl) picolinamide]
5 | > 6.60 | 5.30 to 6.00 | Cc1cc([C@@H](C)Nc2ccc(Cl)nc2C(=O)NS(C)(=O)=O)c2nc(N3CCC[C@H](c4cnn(CC(F)(F)F)c4)C3)n(C)c(=O)c2c1 (relative stereo) [Compound 231, 6-chloro-3-(((R)-1-(3,6-dimethyl-4-oxo-2-((R*)-3-(1-(2,2,2-trifluoroethyl)-1H-pyrazol-4-yl)piperidin-1-yl)-3,4-dihydroquinazolin-8-yl)ethyl)amino)-N-(methylsulfonyl) picolinamide]
6 | 6.30 to 6.60 | 5.30 to 6.00 | Cc1cc([C@@H](C)Nc2ccc(Cl)nc2C(=O)NS(C)(=O)=O)c2nc(N3CC[C@@H](Oc4ccc(F)cc4)C3)n(C)c(=O)c2c1 (relative stereo) [Compound 236, 6-chloro-3-(((R)-1-(2-((R*)-3-(4-fluorophenoxy)pyrrolidin-1-yl)-3,6-dimethyl-4-oxo-3,4-dihydroquinazolin-8-yl)ethyl)amino)-N-(methylsulfonyl) picolinamide]
7 | > 6.60 | 5.30 to 6.00 | Cc1cc([C@@H](C)Nc2ccc(Cl)nc2C(=O)NS(C)(=O)=O)c2nc(N3CCC[C@H](c4ccc(C)nc4)C3)n(C)c(=O)c2c1 (relative stereo) [Compound 237, 6-chloro-3-(((R)-1-(3,6-dimethyl-2-((R*)-3-(6-methylpyridin-3-yl)piperidin-1-yl)-4-oxo-3,4-dihydroquinazolin-8-yl)ethyl)amino)-N-(methylsulfonyl) picolinamide]
8 | > 6.60 | 5.30 to 6.00 | Cc1cc([C@@H](C)Nc2ccc(Cl)nc2C(=O)NS(C)(=O)=O)c2nc(N3CCC[C@@H](c4ccc(C)nc4)C3)n(C)c(=O)c2c1 (relative stereo) [Compound 238, 6-chloro-3-(((R)-1-(3,6-dimethyl-2-((R*)-3-(6-methylpyridin-3-yl)piperidin-1-yl)-4-oxo-3,4-dihydroquinazolin-8-yl)ethyl)amino)-N-(methylsulfonyl) picolinamide]
9 | > 6.60 | 5.30 to 6.00 | Cc1cc([C@@H](C)Nc2ccc(Cl)nc2C(=O)NS(C)(=O)=O)c2nc(N3CCC[C@@H](c4cncc(C#N)c4)C3)n(C)c(=O)c2c1 (relative stereo) [Compound 263, 6-chloro-3-(((R)-1-(2-((R*)-3-(5-cyanopyridin-3-yl)piperidin-1-yl)-3,6-dimethyl-4-oxo-3,4-dihydroquinazolin-8-yl)ethyl)amino)-N-(methylsulfonyl) picolinamide]
10 | > 6.60 | 5.30 to 6.00 | Cc1cc([C@@H](C)Nc2ccc(Cl)nc2C(=O)NS(C)(=O)=O)c2nc(N3Cc4cnn([C@@H](C)C(F)(F)F)c4C3)n(C)c(=O)c2c1 (relative stereo) [Compound 284, 6-chloro-3-(((R)-1-(3,6-dimethyl-4-oxo-2-(1-((R*)-1,1,1-trifluoropropan-2-yl)-4,6-dihydropyrrolo[3,4-c]pyrazol-5(1H)-yl)-3,4-dihydroquinazolin-8-yl)ethyl)amino)-N-(methylsulfonyl) picolinamide]
11 | > 6.60 | 5.30 to 6.00 | Cc1cc([C@@H](C)Nc2ccc(Cl)nc2C(=O)NS(C)(=O)=O)c2nc(N3CCC[C@H](c4conc4C)C3)n(C)c(=O)c2c1 (relative stereo) [Compound 306, 6-chloro-3-(((R)-1-(3,6-dimethyl-2-((R*)-3-(3-methylisoxazol-4-yl)piperidin-1-yl)-4-oxo-3,4-dihydroquinazolin-8-yl)ethyl)amino)-N-(methylsulfonyl) picolinamide]
12 | > 6.60 | ≤ 5.30 | Cc1cc([C@@H](C)Nc2ccc(Cl)nc2C(=O)NS(C)(=O)=O)c2nc(N3CCC[C@H](c4ccc(N)cn4)C3)n(C)c(=O)c2c1 (relative stereo) [Compound 307, 3-(((R)-1-(2-((R*)-3-(5-aminopyridin-2-yl)piperidin-1-yl)-3,6-dimethyl-4-oxo-3,4-dihydroquinazolin-8-yl)ethyl)amino)-6-chloro-N-(methylsulfonyl) picolinamide]
13 | 6.30 to 6.60 | 5.30 to 6.00 | Cc1cc([C@@H](C)Nc2ccc(Cl)nc2C(=O)NS(C)(=O)=O)c2nc(N3CCO[C@H](c4cnn(C)c4)C3)n(C)c(=O)c2c1 (relative stereo) [Compound 313, 6-chloro-3-(((R)-1-(3,6-dimethyl-2-((R*)-2-(1-methyl-1H-pyrazol-4-yl)morpholino)-4-oxo-3,4-dihydroquinazolin-8-yl)ethyl)amino)-N-(methylsulfonyl) picolinamide]
14 | > 6.60 | ≤ 5.30 | Cc1cc([C@@H](C)Nc2ccc(Cl)nc2C(=O)NS(C)(=O)=O)c2nc(N3CCO[C@@H](c4cnn(C)c4)C3)n(C)c(=O)c2c1 (relative stereo) [Compound 314, 6-chloro-3-(((R)-1-(3,6-dimethyl-2-((R*)-2-(1-methyl-1H-pyrazol-4-yl)morpholino)-4-oxo-3,4-dihydroquinazolin-8-yl)ethyl)amino)-N-(methylsulfonyl) picolinamide]
15 | > 6.60 | 5.30 to 6.00 | Cc1cc([C@@H](C)Nc2ccc(Cl)nc2C(=O)NS(C)(=O)=O)c2nc([C@@H]3CCCN(c4cc[nH]n4)C3)n(C)c(=O)c2c1 (relative stereo) [Compound 322, 3-(((R)-1-(2-((R*)-1-(1H-pyrazol-3-yl)piperidin-3-yl)-3,6-dimethyl-4-oxo-3,4-dihydroquinazolin-8-yl)ethyl)amino)-6-chloro-N-(methylsulfonyl) picolinamide]
